# From PubChem BioAssay (NCI)
# Several values for one entry are separate records, joined by “and”; a condition that tells them apart may be missing. Identical values can stand only once.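 Values below derive from 48-hour exposures of cells grown in 96-well plates, with endpoints linearly interpolated between the two concentrations bracketing the appropriate inhibition level. Here, GI50 denotes the concentration required for 50% inhibition of growth. The concentration for full growth arrest is given as TGI.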
# Assays:
# Test in all cases: inhibition of tumour cell growth, NCI panel, 48 h
# [1] = tested on: HL-60(TB) leukemia
# [2] = tested on: HOP-62 NSCLC
# [3] = tested on: IGROV1 ovarian
# [4] = tested on: NCI-H226 lung
# [5] = tested on: NCI-H522 lung
# [6] = tested on: NCI/ADR-RES ovarian
# [7] = tested on: OVCAR-3 ovarian
# [8] = tested on: RXF 393 renal
# [9] = tested on: TK-10 renal
# [10] = tested on: UO-31 renal
SMILES,TGI [1],TGI [2],TGI [3],TGI [4],TGI [5],TGI [6],TGI [7],TGI [8],TGI [9],TGI [10],GI50 [1],GI50 [2],GI50 [3],GI50 [4],GI50 [5],GI50 [6],GI50 [7],GI50 [8],GI50 [9],GI50 [10]
CCOc1ccc2nc(NC(=O)C(=O)C(c3cnc4ccccc4n3)[N+](=O)[O-])sc2c1 (configuration not stated),> 100 µM,> 100 µM,> 100 µM,> 100 µM,> 100 µM,> 100 µM,> 100 µM,> 100 µM,> 100 µM,> 100 µM,–,–,–,–,–,–,–,–,–,–
C=C1CC2(OC1=O)C(=O)Nc1ccccc12 (configuration not stated),3.85 µM,29.6 µM,7.72 µM,5.24 µM,2.03 µM,11.2 µM,2.77 µM,2.9 µM,4.09 µM,5.79 µM,1.73 µM,12.6 µM,2.36 µM,1.85 µM,0.542 µM,2.86 µM,1.11 µM,1.45 µM,1.8 µM,2.09 µM
CN(C)c1ccc(/C=C/c2cc[n+](C)c(/C=C/c3ccc(N(C)C)cc3)c2)cc1,0.873 µM,2.31 µM,3.43 µM,5.43 µM,1.72 µM,18.7 µM,1.56 µM,1.91 µM,2.86 µM,11.9 µM,0.19 µM,0.345 µM,0.821 µM,0.271 µM,0.267 µM,3.81 µM,0.337 µM,0.389 µM,0.374 µM,1.81 µM
COc1cc(C2CC(c3ccc(Nc4ccnc5cc(Cl)ccc45)cc3)=NN2c2ccc(Cl)cc2)cc(OC)c1OC (configuration not stated),> 100 µM,47.5 µM,> 100 µM,> 100 µM,50.2 µM,> 100 µM,> 100 µM,8.05 µM,> 100 µM,> 100 µM,4.68 µM,2.14 µM,4.81 µM,4.77 µM,1.85 µM,1.7 µM,1.87 µM,1.34 µM,5.05 µM,1.58 µM
COc1ccc2c(c1)C(=O)c1c-2n(CCCI)c(=O)c2cc([N+](=O)[O-])ccc12,2.26 µM and 0.822 µM,7.77 µM,50 µM and 72.3 µM,6.02 µM and 14.7 µM,50 µM and 98.8 µM,–,19.4 µM and 20.1 µM,3.57 µM and 13.8 µM,50 µM and > 100 µM,13.1 µM and 10.4 µM,0.167 µM and 0.0526 µM,0.143 µM,–,0.671 µM and 0.89 µM,–,0.14 µM and 0.122 µM,1.08 µM and 2.99 µM,0.319 µM and 0.789 µM,33.1 µM and 19.4 µM,0.36 µM and 0.0716 µM
C[N+]1=C(/C=C\C=C\c2ccccc2)C(C)(C)c2ccccc21,1.62 µM,15.1 µM,8.2 µM,25.5 µM,2.9 µM,33.9 µM,2.81 µM,3.62 µM,15.7 µM,15 µM,0.258 µM,4.1 µM,2.06 µM,4.33 µM,0.863 µM,9.45 µM,1.08 µM,1.75 µM,4.47 µM,3.49 µM
